From patent publication US20240150287A1, “N-(BENZOYL)-PHENYLALANINE COMPOUND, PHARMACEUTICAL COMPOSITION CONTAINING SAME, AND USE THEREOF” (Hangzhou Apeloa Medicine Research Institute Co., Ltd., priority 2021, published 2024)

Biological target: recombinant human integrin α4β7 (binding to recombinant human MAdCAM-1) (Homo sapiens (Human), UniProt P13612+P26010)
Assay: MAdCAM-1/α4β7 integrin binding inhibition activity evaluation test (α4β7-MAdCAM-1 ELISA)
Conditions: plate-coated recombinant human MAdCAM-1, recombinant human α4β7, 2 h room temperature, free form of compound
Procedure: EXAMPLE: MADCAM-1/α4β7 INTEGRIN BINDING INHIBITION ACTIVITY EVALUATION TEST (α4β7-MADCAM-1 ELISA)
Coat the 96-well microplate (Costar) with 50 μL of recombinant human MAdCAM-1 (R&D Systems) solution per well, and incubate overnight (12-18 hours) at 4° C. Wash three times with 150 μL of TBS buffer per well. Block plate with 150 μL per well with blocking buffer for 1 h at 37° C. Wash three times with 150 μL of TBS buffer per well. Dilute the recombinant human integrin α4β7 (R&D Systems) with TBS buffer containing 0.1% bovine serum albumin (BSA), then add to the 96 well plate with 50 μL per well. Add 1 μL of test compound or DMSO, cover, incubate at room temperature for 2 h, wash three times with 150 μL of TBS buffer per well. Dilute the anti-β7 antibody (R&D Systems) with 0.1% BSA TBS buffer, then add to the 96 well plate with 50 μL per well, cover, incubate at room temperature for 1 h, wash three times with 150 μL of TBS buffer per well. Add 50 μL of streptavidin-HRP (R&D Systems) per well, incubate at room temperature for 20 min, wash three times with 150 μL of TBS buffer per well. Add 50 μL of TMB substrate solution (Sigma) per well, incubate at room temperature for 5-30 min, and add 25 μL of stop solution per well to stop the reaction. Finally, measure absorbance at 450 nm with microplate reader (SpectraMax 340PC. Molecular Devices). Repeat the test to find the binding rate of cells at each concentration when the absorbance of the well without the test substance is used as 100%, and calculate the concentration IC50 that causes 50% binding inhibition and summarize the results in Table 1.
It should be stated that, as a test compound, the free form of the compound synthesized in the above examples is used.

recombinant human integrin α4β7 (binding to recombinant human MAdCAM-1), sequence (P13612 34-970): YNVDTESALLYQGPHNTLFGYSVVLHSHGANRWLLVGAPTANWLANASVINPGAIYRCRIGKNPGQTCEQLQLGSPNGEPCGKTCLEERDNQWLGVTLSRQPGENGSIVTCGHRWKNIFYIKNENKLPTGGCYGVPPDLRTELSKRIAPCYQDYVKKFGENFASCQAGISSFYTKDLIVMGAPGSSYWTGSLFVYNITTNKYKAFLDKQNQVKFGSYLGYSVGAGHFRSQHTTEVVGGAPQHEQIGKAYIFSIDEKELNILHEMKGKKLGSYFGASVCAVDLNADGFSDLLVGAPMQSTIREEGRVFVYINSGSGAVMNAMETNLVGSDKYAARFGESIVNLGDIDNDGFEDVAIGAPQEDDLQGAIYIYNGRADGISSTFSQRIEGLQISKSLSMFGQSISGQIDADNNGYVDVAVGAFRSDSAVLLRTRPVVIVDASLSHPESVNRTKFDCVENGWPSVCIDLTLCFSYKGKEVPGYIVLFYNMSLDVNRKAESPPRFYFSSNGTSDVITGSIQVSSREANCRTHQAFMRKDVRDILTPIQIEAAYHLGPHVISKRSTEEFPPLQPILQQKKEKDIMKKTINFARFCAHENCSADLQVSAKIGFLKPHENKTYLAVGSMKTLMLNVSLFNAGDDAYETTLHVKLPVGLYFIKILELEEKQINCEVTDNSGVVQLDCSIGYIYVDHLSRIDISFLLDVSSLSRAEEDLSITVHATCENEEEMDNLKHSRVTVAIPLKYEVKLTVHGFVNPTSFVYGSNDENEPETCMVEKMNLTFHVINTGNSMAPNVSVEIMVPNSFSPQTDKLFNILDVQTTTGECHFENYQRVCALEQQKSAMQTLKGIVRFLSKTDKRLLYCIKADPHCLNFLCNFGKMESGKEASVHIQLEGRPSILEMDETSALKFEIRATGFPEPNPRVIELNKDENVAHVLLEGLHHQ
recombinant human integrin α4β7 (binding to recombinant human MAdCAM-1), sequence (P26010 20-723): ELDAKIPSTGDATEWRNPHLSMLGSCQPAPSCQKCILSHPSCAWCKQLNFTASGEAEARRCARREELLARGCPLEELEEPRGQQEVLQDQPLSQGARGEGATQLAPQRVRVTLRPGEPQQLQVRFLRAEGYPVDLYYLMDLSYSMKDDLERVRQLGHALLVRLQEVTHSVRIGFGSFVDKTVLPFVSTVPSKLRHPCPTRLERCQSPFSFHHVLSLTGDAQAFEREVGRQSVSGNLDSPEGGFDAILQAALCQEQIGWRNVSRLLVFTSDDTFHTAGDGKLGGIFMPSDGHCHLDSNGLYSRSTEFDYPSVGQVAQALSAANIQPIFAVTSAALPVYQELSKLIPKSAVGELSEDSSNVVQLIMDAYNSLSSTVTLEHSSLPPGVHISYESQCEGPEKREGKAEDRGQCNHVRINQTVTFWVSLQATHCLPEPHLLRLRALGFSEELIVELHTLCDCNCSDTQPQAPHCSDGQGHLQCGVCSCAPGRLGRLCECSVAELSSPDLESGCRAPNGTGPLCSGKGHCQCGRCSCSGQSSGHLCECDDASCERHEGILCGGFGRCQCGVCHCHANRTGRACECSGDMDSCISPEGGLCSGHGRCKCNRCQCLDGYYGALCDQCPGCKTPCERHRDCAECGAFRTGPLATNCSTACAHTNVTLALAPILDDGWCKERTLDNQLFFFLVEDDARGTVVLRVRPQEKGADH

| Structure (SMILES) | IC50 [nM] |
| --- | --- |
| O=C(N[C@@H](Cc1ccc(-n2c(=O)n(C3CC3)c3cccc(Cl)c32)cc1)C(=O)O)c1c(Cl)cccc1Cl [Example 25, (S)-3-(4-(7-chloro-3-cyclopropyl-2-oxo-2,3-dihydro-1H-benzo[d]imidazol-1-yl)phenyl)-2-(2,6-dichlorobenzamido)propionic acid] | 7.5 |
| CN1CCC(n2c(=O)n(-c3ccc(C[C@H](NC(=O)c4c(F)cccc4Cl)C(=O)O)cc3)c3c(Cl)cccc32)CC1 [Example 29, (S)-3-(4-(7-chloro-3-(1-methylpiperidin-4-yl)-2-oxo-2,3-dihydro-1H-benzo[d]imidazol-1-yl)phenyl)-2-(2-chloro-6-fluorobenzoylamino)propionic acid] | 18.1 |
| Cn1c(=O)n(-c2ccc(C[C@H](NC(=O)c3c(F)cccc3Cl)C(=O)O)cc2)c2c(F)cc(F)cc21 [Example 31, (S)-2-(2-chloro-6-fluorobenzoylamino)-3-(4-(5,7-difluoro-3-methyl-2-oxo-2,3-dihydro-H-benzo[d]imidazol-1-yl)phenyl)propionic acid] | 5.34 |
| Cn1c(=O)n(-c2ccc(C[C@H](NC(=O)c3c(F)cccc3Cl)C(=O)O)cc2)c2cc(Cl)c(Cl)cc21 [Example 32, (S)-2-(2-chloro-6-fluorobenzoylamino)-3-(4-(5,6-dichloro-3-methyl-2-oxo-2,3-dihydro-H-benzo[d]imidazol-1-yl)phenyl)propionic acid] | 4.19 |
| Cn1c(=O)n(-c2ccc(C[C@H](NC(=O)c3c(F)cccc3Cl)C(=O)O)cc2)c2c(F)c(F)ccc21 [Example 33, (S)-2-(2-chloro-6-fluorobenzoylamino)-3-(4-(6,7-difluoro-3-methyl-2-exo-2,3-dihydro-1H-benzo[d]imidazol-1-yl)phenyl)propionic acid] | 2.7 |
| Cn1c(=O)n(-c2ccc(C[C@H](NC(=O)c3c(F)cccc3Cl)C(=O)O)cc2)c2ccc(F)c(F)c21 [Example 34, (S)-2-(2-chloro-6-fluorobenzoylamino)-3-(4-(4,5-difluoro-3-methyl-2-oxo-2,3-dihydro-1H-benzo[d]imidazol-1-yl)phenyl)propionic acid] | 10.5 |
| COc1cccc2c1n(-c1ccc(C[C@H](NC(=O)c3c(F)cccc3Cl)C(=O)O)cc1)c(=O)n2C [Example 35, (S)-2-(2-chloro-6-fluorobenzoylamino)-3-(4-(7-methoxy-3-methyl-2-oxo-2,3-dihydro-1H-benzo[d]imidazol-1-yl)phenyl)propionic acid] | 0.45 |
| CN(C)c1ccc2c(c1)n(C)c(=O)n2-c1ccc(C[C@H](NC(=O)c2c(F)cccc2Cl)C(=O)O)cc1 [Example 37, (S)-2-(2-chloro-6-fluorobenzoylamino)-3-(4-(5-(dimethylamino)-3-methyl-2-oxo-2,3-dihydro-1H-benzo[d]imidazol-1-yl)phenyl)propionic acid] | 5.09 |
| Cn1c(=O)n(-c2ccc(C[C@H](NC(=O)c3c(Cl)cc(Cl)cc3Cl)C(=O)O)cc2)c2c(Cl)cccc21 [Example 38, (S)-3-(4-(7-chloro-3-methyl-2-oxo-2,3-dihydro-1H-benzo[d]imidazol-1-yl)phenyl)-2-(2,4,6-trichlorobenzamido)propionic acid] | 27.9 |

Other lines, results leading:

| IC50 [nM] | Structure (SMILES) |
| --- | --- |
| 5.67 | O=C(N[C@@H](Cc1ccc(-n2c(=O)n(C3CC3)c3ccc(Cl)cc32)cc1)C(=O)O)c1c(Cl)cccc1Cl [Example 24, (S)-3-(4-(6-chloro-3-cyclopropyl-2-oxo-2,3-dihydro-1H-benzo[d]imidazol-1-yl)phenyl)-2-(2,6-dichlorobenzamido)propionic acid] |
| 160 | Cn1c(=S)n(-c2ccc(C[C@H](NC(=O)c3c(F)cccc3Cl)C(=O)O)cc2)c2c(Cl)cccc21 [Example 26, (S)-3-(4-(7-chloro-3-methyl-2-thio-2,3-dihydro-1H-benzo[d]imidazol-1-yl)phenyl)-2-(2-chloro-6-fluorobenzoylamino)propionic acid] |
| 8.81 | O=C(N[C@@H](Cc1ccc(-n2c(=O)n(C3CC3)c3cccc(F)c32)cc1)C(=O)O)c1c(F)cccc1Cl [Example 27, (S)-2-(2-chloro-6-fluorobenzoylamino)-3-(4-(3-cyclopropyl-7-fluoro-2-oxo-2,3-dihydro-1H-benzo [d]imidazol-1-yl)phenyl)propionic acid] |
| 10.9 | O=C(N[C@@H](Cc1ccc(-n2c(=O)n(C3CCOCC3)c3cccc(Cl)c32)cc1)C(=O)O)c1c(F)cccc1Cl [Example 28, (S)-3-(4-(7-chloro-2-oxo-3-(tetrahydro-2H-pyran-4-yl)-2,3-dihydro-1H-benzo[d]imidazol-1-yl)phenyl)-2-(2-chloro-6-fluorobenzoylamino)propionic acid] |
| 1.51 | CN(C)c1ccc2c(c1)n(-c1ccc(C[C@H](NC(=O)c3c(F)cccc3Cl)C(=O)O)cc1)c(=O)n2C [Example 36, (S)-2-(2-chloro-6-fluorobenzoylamino)-3-(4-(6-(dimethylamino)-3-methyl-2-oxo-2,3-dihydro-1H-benzo[d]imidazol-1-yl)phenyl)propionic acid] |
| 3.65 | Cn1c(=O)n(-c2ccc(C[C@H](NC(=O)c3c(Cl)cc(N4CCOCC4)cc3Cl)C(=O)O)cc2)c2c(Cl)cccc21 [Example 39] |
